Laboratory results from ChEMBL document CHEMBL3507680, “University of Dundee, Gates Library screen for HepG2 cell viability”.

Assay: Human HepG2 cell viability assay in 384 well format
Assay type: toxicity, cell-based
Parameters: dose 125 nL, time 70.5 hour; cytotoxicity at 70.5 h: concentration not given beside the values
Conditions: HepG2 cells, read-out: Inhibition

Row | SMILES | cytotoxicity at 70.5 h [%]
1 | CN(Cc1ccccn1)C1COC2(CCN(Cc3cccnc3)CC2)C1 (centres undefined) | 24.4
2 | Cc1nc(C)n(C2CCCN(C(=O)c3cncnc3C)C2)n1 (centres undefined) | 2.45
3 | COCC(=O)N1CCC(C)(c2cc(O)[nH]n2)CC1 | 0.0821
4 | COCCn1cc(NC(=O)NC(C)c2ccc(Cl)s2)cn1 (centres undefined) | -3.34
5 | Cc1ccnn1CCC(=O)N1C[C@@H](O)[C@H](Oc2cccc(F)c2)C1 | -2.79
6 | CC(=O)N1CCc2nc(N3CCCC3)nc(C)c2C1 | -0.643
7 | COc1ccccc1OC1CCN(C(=O)c2cccc(O)c2C)CC1 | -4.78
8 | CCn1cnnc1CCNC(=O)c1ccc(F)c(Br)c1 | -12.1
9 | O=C1CCC2(CCCN(C(=O)c3cccnc3)CC2)N1 (centres undefined) | -3.4
10 | CSc1ccccc1C(=O)N1C[C@H]2CC[C@@H]1CN(C(=O)N(C)C)C2 | -8.08
11 | NC(=O)NC(=O)CCN1C(=O)CC(Cc2ccc(F)cc2)C1=O (centres undefined) | -13.2
12 | CN(Cc1ccncc1)C1COC2(CCN(Cc3nccn3C)CC2)C1 (centres undefined) | -8.93
13 | CCN(Cc1noc(C2CC2)n1)Cc1ccc(C#N)cc1F | 1.6
14 | CCS(=O)(=O)c1ccc2oc([C@H]3CCN(Cc4ccccn4)C3)nc2c1 | 2.52
15 | CN1C(=O)C2(CC(=O)Nc3c2cnn3C(C)(C)C)c2ccccc21 (centres undefined) | -18.7
16 | CN1CCC(CCNC(=O)c2ccc(N(C)S(C)(=O)=O)cc2Cl)CC1 | -7.69
17 | CC(CCNC(=O)N(C)CC1CCOCC1)N1CCCCC1 (centres undefined) | -7.97
18 | Cc1ncsc1CCNC(=O)Cn1nc(C)n(Cc2ccccc2)c1=O | -2.97
19 | CC(c1ccco1)N(C(=O)COc1ccc(C#N)cc1)C1CC1 (centres undefined) | -6.31
20 | Cc1nc([C@H]2C[C@@H]3CCN(Cc4cnn(C)c4)C[C@H]3O2)sc1C | -1.71
21 | c1cncc(-c2noc(C3CN(Cc4cccs4)C3)n2)c1 | -12.2
22 | O=C(c1cc2c([nH]c1=O)CCC2)N1CCCC1c1ccc(F)cc1 (centres undefined) | -3.95
23 | O=C1CCN(C(=O)C2(c3ccc(F)cc3)CCCC2)CCN1 | -5.37

Row | SMILES | cytotoxicity at 70.5 h [%]
24 | Cn1cccc1C(=O)NC1CCN(c2ccc(OC(F)(F)F)cc2)CC1 | 16.6
25 | CC(C)NC(=O)C1CCC2(CCN(Cc3cnn(C)c3)CC2)C1 (centres undefined) | -8.81
26 | COc1ccc(OC)c(C(O)CN2CC(n3cccn3)C2)c1 (centres undefined) | -9.37
27 | COc1ccc(OCc2cc(C(=O)N3CC=CC3)n[nH]2)c(Cl)c1 | -3
28 | NC(=O)c1cc(C2CCCN(CCOc3ccc(F)cc3)C2)n[nH]1 (centres undefined) | -2.25
29 | O=C(c1cccc(=O)[nH]1)N(Cc1ccsc1)CC1CCCO1 (centres undefined) | 5.57
30 | CC(C)C(=O)Nc1cccc(C(=O)Nc2ccccn2)c1 | -25.2
31 | CC(=O)c1c(C)nn(CC(=O)N2Cc3cnc(C(C)(C)C)nc3C2)c1C | -5.26
32 | CCOC(=O)c1ccc(Nc2ccc(OC)c(N3CCCC3=O)c2)nc1 | -14.4
33 | CN(CC1COCCO1)c1ncnc2cc(F)ccc12 (centres undefined) | 19
34 | CCc1nc(C2CCCN2CCCS(N)(=O)=O)no1 (centres undefined) | -3.37
35 | CC(=O)N1CCN(CC=C(C)C)CC1 | -6.01
36 | Cc1ncc(C(=O)N2CC[C@@]3(O)CCN(C4CCCCC4)C[C@H]3C2)cn1 | -7.37
37 | CCOC(=O)CN1C[C@@H]2OCCN(c3ncc(F)cn3)[C@@H]2C1 | 21.2
38 | CC(=O)N1CCN(C2CCCCc3ccccc32)CC1 (centres undefined) | -1.72
39 | Cn1cc(Cl)c(CN(Cc2ccsc2)CC2CCCO2)n1 (centres undefined) | -5.58
40 | c1ccc(CN2CCNCC(Cc3cnccn3)C2)cc1 (centres undefined) | -1.06
41 | O=C(NCCn1ccnc1)C1(c2ccc3c(c2)OCCO3)CCCC1 | -12
42 | COc1ccccc1Oc1ncccc1CNC(=O)C(C)N1CCCC1 (centres undefined) | -1.98
43 | O=C(CC1CC1)N1CCC2(CC1)CN(c1ncccn1)CCO2 | -7.66
44 | Cc1n[nH]cc1CNC1(Cc2ccc(Br)cc2)CCCCC1 | -1.97
45 | Cc1cc(N)cc(C2CN(Cc3cc[nH]n3)CCO2)n1 (centres undefined) | -6.43
46 | NC(=O)CN(CC1CCOC1)C1CC1 (centres undefined) | -2.08

Row | SMILES | cytotoxicity at 70.5 h [%]
47 | CC(C)(C)[S+]([O-])CCNC(=O)c1ccc(Cl)c2cccnc12 (centres undefined) | -6.1
48 | Cc1cccc(OCC2CCCN(C(=O)Cn3ccccc3=O)C2)c1 (centres undefined) | 5.85
49 | CNC(=O)[C@H]1C[C@@H]2CN(C(=O)c3ccsc3)C[C@@H]2N1S(C)(=O)=O | -10.8
50 | O=S(=O)(CCN1CCOC(Cn2cccn2)C1)c1ccccc1 (centres undefined) | -7.12
51 | N#Cc1ccccc1CN1C[C@H]2CC[C@@H]1CN(C(=O)c1cccnc1)C2 | -10.2
52 | Cc1ccc(C(C)NCc2c(C(C)C)nn(C)c2N2CCOCC2)o1 (centres undefined) | -5.88
53 | CSCc1noc(CN(C)C(C)c2nc(C)sc2C)n1 (centres undefined) | 6.01
54 | Cn1ccnc1CN1CCCC1CCc1ccccc1 (centres undefined) | 2.44
55 | O=C(CCC1CCN(C(=O)c2cnco2)CC1)NCc1cccc(Cl)c1 | -5.59
56 | COc1cccc2c1OCC(NC(=O)NCc1cccs1)C2 (centres undefined) | -0.177
57 | COCCn1cc(C(=O)N2CCCC2c2ccccc2C)ccc1=O (centres undefined) | -7.56
58 | Cc1nccc(N[C@H]2CN(C(=O)CN3CCOCC3)C[C@@H]2C(C)C)n1 | -1.67
59 | COC(=O)c1ccc(CNCc2ccn(C)n2)cc1 | 17.7
60 | CC(=O)NC1CCCN(C(=O)CNc2cc(Cl)cc(Cl)c2)C1 (centres undefined) | -5.65
61 | Cc1cc(C(=O)N2C[C@@H]3COC[C@]3(c3nnc(C(C)C)o3)C2)on1 | -9.37
62 | Cc1cc(Br)c(O)c(-c2nc(N3CCCCC3)sc2C)c1 | 13.1
63 | CC(C#N)CSc1ccccc1NCC(=O)NC1CCCCC1 (centres undefined) | -1.2
64 | O=C(NCC1CC1)C1CCC2(CCN(C(=O)c3cnccn3)CC2)O1 (centres undefined) | 9.2
65 | Cn1c(Nc2ccc(F)cc2)c(C#N)c(=O)n(C)c1=O | -4.76
66 | CN(C)CC(=O)Nc1ccc(C(=O)N(C)CCc2cn[nH]c2)cc1 | -1.37
67 | CN1CC(C(=O)NC(C)(C)C)CC1=O (centres undefined) | -9.06
68 | Cc1cc(NCc2ccc(CS(N)(=O)=O)cc2)nc(C)n1 | -12.6
69 | CCc1ccc(CN2CCc3[nH]nc(C(=O)N4CCNC(=O)C4)c3C2)o1 | -11.8

Row | SMILES | cytotoxicity at 70.5 h [%]
70 | CC(=O)Nc1ccc(S(=O)(=O)N2CCOC(Cn3ccnc3)C2)cc1 (centres undefined) | -4.79
71 | CC(NC(=O)C1(NC(=O)c2ccc3[nH]ncc3c2)CCCC1)C1CC1 (centres undefined) | -5.24
72 | CCCc1cc(NCCCC2CCOC2)n2nccc2n1 (centres undefined) | -2.1
73 | O=C(NCCc1nncn1C1CC1)C1SCCc2ccccc21 (centres undefined) | -7.17
74 | CN(C)CC(=O)N1CCc2onc(Cn3cccn3)c2C1 | -9.72
75 | Cn1cnnc1SCc1cc2c(cc1Cl)OCO2 | -20.6
76 | O=C(c1ccccc1C(F)(F)F)N1C[C@@H](CN2CCOCC2)[C@@H](CO)C1 | -6.68
77 | O=C(NC1CC1)C1CNCCN1C(=O)CCOc1ccccc1 (centres undefined) | -0.757
78 | COCCN(C)C[C@@H]1CN(c2nnc(C(C)C)s2)C[C@@H]1CO | -9.43
79 | Cc1c(I)cccc1C(=O)NCC1(CO)CC1 | -7.8
80 | NC(=O)C1CCN(C(=O)CCn2ccc3cc(Br)ccc32)CC1 | -1.61
81 | CCCN1CC2(CCN(C)CC2)CC1C(=O)NCc1cc(C)nn1C (centres undefined) | -12.4
82 | Fc1ccccc1CN1CCCC(NC2CCOCC2)C1 (centres undefined) | -9.48
83 | O=C(NCc1cnc2n1CCN(Cc1nccs1)C2)c1ccno1 | -3.38
84 | CS(=O)(=O)N1CCO[C@@H]2CCN(Cc3ccncc3)CC[C@H]21 | -6.06
85 | Cc1nn(C)c(C)c1C1CCCN1C(=O)c1ccc(Cl)o1 (centres undefined) | 3.22
86 | Cc1nccn1-c1ccc(C(C)NCCC(C)C)cc1 (centres undefined) | -1.85
87 | CC1CCN(Cc2ccccc2CNC(=O)C2CNC(=O)N2)CC1 (centres undefined) | -4.5
88 | O=C(Nc1cccc(CNCc2csc(Br)c2)c1)C1CC1 | 4.95
89 | CC(O)CN1CCC(CN(C)Cc2ccc(C#N)cc2F)CC1 (centres undefined) | 6.92
90 | CCSc1ccc(C(=O)N2CCCC2C(=O)N2CCOCC2)cn1 (centres undefined) | -12.5
91 | Cc1cc2nc(-c3ccccc3)cc(NCC3CCCOC3)n2n1 (centres undefined) | 0.476
92 | COCCCN1CCCN(C(C)C(=O)Nc2ccnn2C(C)C)CC1 (centres undefined) | -4

Row | SMILES | cytotoxicity at 70.5 h [%]
93 | CSc1ncccc1C(=O)NCc1ccc(CS(=O)(=O)NC(C)C)cc1 | 2.32
94 | N#Cc1nccnc1NC1CCN(c2c(F)cccc2F)C1 (centres undefined) | -4.72
95 | O=C(NC1CCOCC1)c1cccc(C2CCCNC2)c1 (centres undefined) | -10.4
96 | CN(C)C(=O)N1C[C@H]2CCC[C@@]2(COc2ccccn2)C1 | -8.44
97 | CCN1CC(C(=O)NCc2noc(Cc3ccccc3)n2)CCC1=O (centres undefined) | -12.4
98 | CCc1c(C)nn(CCN2CC3(CCOC3)CCC2=O)c1C (centres undefined) | -6.21
99 | CN(CCC#N)C(=O)CN1CCCC1c1ccsc1 (centres undefined) | 22.4
100 | CCS(=O)(=O)CCN(C)Cc1cc(C)ccc1OC | -13.6
101 | COCC(=O)N1CCC(c2nc3ccc(-c4ccncc4)cn3n2)CC1 | -6.45
102 | COC(=O)c1ccc(CN2CCC(c3n[nH]c(C)n3)CC2)s1 | -0.468
103 | Cc1cnccc1-c1cnn(CCNC(=O)c2cccnc2)c1C1CC1 | -5.95
104 | CCOc1cc(C(=O)N2CCCC2)cc2occc12 | -8.39
105 | Cc1cnc(C)c(N2CCCC(CC3CC3)(C(=O)O)C2)n1 (centres undefined) | -4.19
106 | Cc1ccc2nc(CN3CCCC3c3cccnc3)cc(O)c2c1 (centres undefined) | -2.21
107 | Cc1cc(C(F)(F)F)nc(CNC(=O)CCn2cccn2)n1 | -6.34
108 | COC[C@@H]1CC[C@H]2[C@H](CCN2S(=O)(=O)c2ccc(C)cc2)O1 | -4.48
109 | O=C(c1cccnc1)N1CCCC1c1cc[nH]n1 (centres undefined) | 23.9
110 | Cn1cc(C2CCCN2Cc2csc(C(C)(C)C)n2)cn1 (centres undefined) | 25.7
111 | Cc1ccc(C(=O)N2CCN(C(=O)Cc3ccccn3)CC2)c(C)c1 | -5.32
112 | CC(=O)N1CCCN(C(=O)NCCNc2cnccn2)CC1 | -2.47
113 | Cc1ccc(OCCNC(=O)C(C)n2cncn2)cc1 (centres undefined) | 10.5
114 | Cc1ccc(CN2C[C@@H]3COC[C@]3(COc3ccc(C#N)cn3)C2)o1 | 7.17
